These results are taken from patent publication EP1614683B1, “Indazole compounds and pharmaceutical compositions for inhibiting protein kinases, and methods for their use” (priority 1999, dated 2001).

For one series, the target named is LCK tyrosine kinase (Homo sapiens, UniProt P06239, C224D/P223M). Put plainly: LCK spectrophotometric assay. Format: biochemical. The protocol: The spectrophotometric assay was carried out as described above for VEGF-R2, except for the following changes in concentration: LCK = 60 nM, MgCl2 = 0 mM, poly(E4Y1) = 20 mM.
The next series addresses CDK2/Cyclin A complex (Homo sapiens, UniProt P24941). Put plainly: CDK2/Cyclin A assay ([32P]ATP incorporation into Rb fragment). Conditions: Table 1; read-out: CDK2 * (Ki, cell in µM). Format: biochemical.
Another series addresses T1, human FAK (FAKcd409) (Homo sapiens, UniProt Q05397, P410T).
T1 construct: comprises residues methionine 409 to glutamate 689; made in house; host or cells: baculovirus vector expression system (insect cells)
Kind of series: FAK fluorescence polarization assay. In kind it is biochemical. Conditions: read-out: % Inhibition FAK, compound tested at 10 µM. The method, boiled down: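 Baculovirus-expressed FAK catalytic domain (FAKcd409, 5 nM) phosphorylating 1 mg/ml poly Glu-Tyr (4:1) with 1 mM ATP in 100 mM Hepes pH 7.5, 10 mM MgCl2, 1 mM DTT. Stopped with EDTA; fluorescent peptide and anti-phosphotyrosine antibody added, product detected by fluorescence polarization.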
Background: In fluorescence polarisation assays a small probe gives low polarisation when free and higher when bound to something large.

Series [1] deals with T2, phosphorylated Tie-2 (aa 775-1122) (Homo sapiens, UniProt Q02763).
T2 construct: 4 to 12 nM phosphorylated Tie-2 (aa 775-1122); made in house; host or cells: insect cells
Kind of series: TIE-2 spectrophotometric assay. In kind it is biochemical. Conditions: read-out: % Inhibition Tie2-P, compound tested at 10 µM. The method, boiled down: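 Human phosphorylated Tie-2 kinase activity was measured spectrophotometrically by coupling ADP formation, from phosphoryl transfer to poly(Glu4 Tyr), to NADH oxidation via pyruvate kinase and lactate dehydrogenase. Absorbance loss at 340 nm was read on a Beckman DU650. Reactions held 1 mM phosphoenolpyruvate, 0.24 mM NADH, 40 mM MgCl2, 5 mM DTT, 0.5 mM ATP, and 15 units/mL each of PK and LDH in 100 mM HEPES, pH 7.5.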

Series [2] relates to human umbilical vein endothelial cells (HUVEC). Put plainly: HUVEC proliferation assay (VEGF-stimulated, MTT). In kind it is cell-based. Conditions: Homo sapiens, HUVEC, read-out: HUVEC IC50.
In series [3] the target is T3, CDK4/Cyclin D3 complex (Homo sapiens, UniProt P11802). Conditions: read-out: CDK4 * (Ki, cell in µM); Table 1.
The next series has as its system HCT-116. Kind of series: HCT-116 cell assay (Table 2). In kind it is cell-based. Conditions: Homo sapiens.
In another series the target is human FGF-R1 (Homo sapiens, UniProt P11362, C488A/C584S/L457V). Put plainly: FGF-R spectrophotometric assay. In kind it is biochemical. Conditions: read-out: FGF* (% inhibition). The protocol: The spectrophotometric assay was carried out as described above for VEGF-R2, except for the following changes in concentration: FGF-R = 50 nM, ATP = 2 mM, and poly(E4Y1) =15 mM.

The target in a further series is T4, human CHK1 (FL-CHK1) (Homo sapiens, UniProt O14757).
T4 construct: C-terminally His-tagged full-length human CHK1 (FL-CHK1) was expressed using the baculovirus/insect cell system; made in house; host or cells: baculovirus/insect cell system
T4 sequence (O14757 1-476): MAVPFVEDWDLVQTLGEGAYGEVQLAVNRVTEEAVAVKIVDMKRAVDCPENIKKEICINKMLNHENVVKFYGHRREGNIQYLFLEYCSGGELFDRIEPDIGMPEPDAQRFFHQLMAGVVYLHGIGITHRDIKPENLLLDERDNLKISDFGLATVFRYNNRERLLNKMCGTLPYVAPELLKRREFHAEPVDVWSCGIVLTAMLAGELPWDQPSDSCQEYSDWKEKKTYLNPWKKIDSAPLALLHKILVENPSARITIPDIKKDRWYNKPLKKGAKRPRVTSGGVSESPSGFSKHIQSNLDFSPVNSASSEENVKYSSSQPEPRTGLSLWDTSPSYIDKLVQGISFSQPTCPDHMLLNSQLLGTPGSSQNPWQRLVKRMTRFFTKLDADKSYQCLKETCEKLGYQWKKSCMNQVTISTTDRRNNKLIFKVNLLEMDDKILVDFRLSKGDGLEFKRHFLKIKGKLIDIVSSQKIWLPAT
Put plainly: CHK1 coupled spectrophotometric assay. In kind it is biochemical. The following applies: read-out: CHK1* (% inhibition). The method, boiled down: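 His-tagged full-length human CHK1 from baculovirus/insect cells, 10 nM, phosphorylating Syntide-2. ADP formation coupled via PK/LDH with PEP to NADH oxidation, followed as absorbance decrease at 340 nm. Ki from initial rates at varying compound concentrations.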

Series [4] addresses T5, truncated catalytic subunit (gamma subunit) of phosphorylase kinase (amino acids 1-298) (Oryctolagus cuniculus, UniProt P00518).
T5 construct: (gamma subunit) of phosphorylase kinase (amino acids 1-298); made in house
Put plainly: Phosphorylase kinase assay. Conditions: 10 µM of compound; phosphoryl transfer from ATP to phosphorylase b. Format: biochemical.
Experimental: In the assay, the purified catalytic subunit is used to phosphorylate phosphorylase b using radiolabled ATP. Briefly, 1.5 mg/ml of phosphorylase b is incubated with 10 nM phosphorylase kinase in 10 mM MgCl2, 50 mM Hepes pH 7.4, at 37 °C. […] The reaction was terminated and proteins were precipitated by the addition of TCA to 10% final concentration. […] The filter plate was then extensively washed with 20% TCA, and dried. Scintilation fluid was then added to the plate and incorporated radiolabel was counted on a Wallac microbeta counter.

The target of series [5] is unphosphorylated VEGF-R2Δ50 (Homo sapiens, UniProt P35968, DEL940-989/E990V). Put plainly: biochemical. Conditions: read-out: FLVK* (% inhibition).
For series [6], the target named is T3, CDK4/Cyclin D3 complex. Put plainly: biochemical. Conditions: read-out: CDK4* (% inhibition @ 5 µM).
Series [7] is described as follows: Isomer stability under assay conditions. In kind it is physicochemical. The following applies: Z-isomer, isolated pure. How it is done: Reference Example 33(h) was prepared in the same reaction as Reference Example 33(d). […] Found: C (66.36), H (4.08), N (11.49), S (6.55).
[8] abbreviates: Table 1, compound concentration 1 µM, read-out: Lck-P* (% inhibition).

Where two headings read alike, the source gives them in different places. Bounds are passed on as bounds.

T3 sequence (P11802 whole entry): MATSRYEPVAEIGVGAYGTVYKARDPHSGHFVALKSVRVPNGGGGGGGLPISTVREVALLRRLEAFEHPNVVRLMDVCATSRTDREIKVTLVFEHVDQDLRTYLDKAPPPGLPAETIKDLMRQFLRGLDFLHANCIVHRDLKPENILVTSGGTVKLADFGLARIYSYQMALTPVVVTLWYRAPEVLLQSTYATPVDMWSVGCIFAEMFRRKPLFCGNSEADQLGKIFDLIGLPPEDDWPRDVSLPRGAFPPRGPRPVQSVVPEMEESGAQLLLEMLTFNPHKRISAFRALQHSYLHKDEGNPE
T3 sequence (P30281 whole entry partner): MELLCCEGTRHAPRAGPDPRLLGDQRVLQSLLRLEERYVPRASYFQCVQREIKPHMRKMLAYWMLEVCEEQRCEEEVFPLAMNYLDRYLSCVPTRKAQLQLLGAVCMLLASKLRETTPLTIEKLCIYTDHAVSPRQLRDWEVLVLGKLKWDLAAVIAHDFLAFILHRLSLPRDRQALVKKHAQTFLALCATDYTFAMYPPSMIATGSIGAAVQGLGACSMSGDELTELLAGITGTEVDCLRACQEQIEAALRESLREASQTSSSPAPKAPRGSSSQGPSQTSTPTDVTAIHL
Chain of LCK tyrosine kinase (P06239 223-509 P223M/C224D): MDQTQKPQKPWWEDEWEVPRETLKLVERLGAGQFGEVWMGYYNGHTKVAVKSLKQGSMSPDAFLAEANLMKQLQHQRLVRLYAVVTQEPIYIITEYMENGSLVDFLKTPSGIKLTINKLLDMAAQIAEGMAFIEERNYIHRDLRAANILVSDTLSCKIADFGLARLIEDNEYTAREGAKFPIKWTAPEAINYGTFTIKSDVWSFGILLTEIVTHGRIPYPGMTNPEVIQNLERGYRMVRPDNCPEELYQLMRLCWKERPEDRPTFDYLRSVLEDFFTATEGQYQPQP
T1 sequence (Q05397 409-689 P410T): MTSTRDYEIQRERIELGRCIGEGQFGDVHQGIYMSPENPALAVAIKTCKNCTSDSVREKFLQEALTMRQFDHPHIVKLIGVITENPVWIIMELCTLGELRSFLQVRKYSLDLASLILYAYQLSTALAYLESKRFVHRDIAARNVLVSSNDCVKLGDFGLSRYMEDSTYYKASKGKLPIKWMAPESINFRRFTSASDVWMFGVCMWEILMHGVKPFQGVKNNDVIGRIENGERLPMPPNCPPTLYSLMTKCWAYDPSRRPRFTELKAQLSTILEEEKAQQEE
T2 sequence (Q02763 775-1122): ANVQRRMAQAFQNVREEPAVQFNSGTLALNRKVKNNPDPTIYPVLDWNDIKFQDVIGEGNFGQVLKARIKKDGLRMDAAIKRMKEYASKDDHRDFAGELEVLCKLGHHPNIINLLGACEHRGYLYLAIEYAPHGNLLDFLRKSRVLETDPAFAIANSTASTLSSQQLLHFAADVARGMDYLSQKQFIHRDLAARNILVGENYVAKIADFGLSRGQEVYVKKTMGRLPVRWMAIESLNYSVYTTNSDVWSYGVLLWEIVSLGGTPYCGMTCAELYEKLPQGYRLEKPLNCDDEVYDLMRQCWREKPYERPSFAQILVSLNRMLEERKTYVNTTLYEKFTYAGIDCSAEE
Chain of human FGF-R1 (P11362 456-766 L457V/C488A/C584S): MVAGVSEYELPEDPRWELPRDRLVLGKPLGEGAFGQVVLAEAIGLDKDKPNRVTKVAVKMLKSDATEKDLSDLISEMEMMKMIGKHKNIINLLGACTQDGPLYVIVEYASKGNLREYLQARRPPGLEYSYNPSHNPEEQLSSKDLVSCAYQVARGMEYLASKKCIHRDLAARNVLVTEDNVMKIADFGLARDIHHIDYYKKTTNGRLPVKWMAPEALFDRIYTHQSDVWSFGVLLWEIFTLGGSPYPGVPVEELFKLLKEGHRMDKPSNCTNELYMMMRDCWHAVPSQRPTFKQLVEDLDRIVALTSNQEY
Chain of unphosphorylated VEGF-R2Δ50 (P35968 with tags, fused parts or gaps DEL940-989/E990V limits assumed): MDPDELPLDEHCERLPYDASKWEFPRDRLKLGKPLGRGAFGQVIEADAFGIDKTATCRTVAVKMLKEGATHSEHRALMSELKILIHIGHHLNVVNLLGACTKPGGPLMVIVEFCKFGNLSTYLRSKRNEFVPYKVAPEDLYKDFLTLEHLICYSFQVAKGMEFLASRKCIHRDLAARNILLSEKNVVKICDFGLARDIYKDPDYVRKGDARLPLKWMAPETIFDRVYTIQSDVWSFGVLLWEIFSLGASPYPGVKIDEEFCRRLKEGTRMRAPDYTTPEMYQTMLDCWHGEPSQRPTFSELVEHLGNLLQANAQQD
T5 sequence (P00518 2-299 limits assumed): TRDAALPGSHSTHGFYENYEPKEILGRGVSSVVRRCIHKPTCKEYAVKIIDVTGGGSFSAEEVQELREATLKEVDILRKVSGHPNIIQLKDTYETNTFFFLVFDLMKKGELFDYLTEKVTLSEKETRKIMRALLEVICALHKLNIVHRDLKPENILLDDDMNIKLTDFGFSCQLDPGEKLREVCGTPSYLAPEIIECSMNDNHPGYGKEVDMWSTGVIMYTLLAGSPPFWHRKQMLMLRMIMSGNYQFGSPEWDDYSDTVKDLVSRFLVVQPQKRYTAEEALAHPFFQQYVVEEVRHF

Consider `C(=C\c1n[nH]c2cc(Oc3ccccc3)ccc12)/c1ccccc1` [8(a), 3-(E-styryl)-6-phenoxy-1H-indazole], for which the inhibition at 1 µM on LCK tyrosine kinase (setting [8]) was 43%. The inhibition constant Ki on CDK2/Cyclin A complex and on CDK4/Cyclin D3 complex [3] was > 100 µM each time. The values for the inhibition at 10 µM (at human FAK (FAKcd409); in series [1]) were 3% and 55%, respectively. Moreover, the IC50 in series [2] was > 1000 nM.
In the case of `C(=C\c1n[nH]c2cc(Sc3ccccc3)ccc12)/c1ccccc1` [8(c), 3-(E-styryl)-6-phenylsulfanyl-1H-indazole], on LCK tyrosine kinase (setting [8]), the inhibition at 1 µM was found to be 34%. For the same compound, the Ki at CDK2/Cyclin A complex and at CDK4/Cyclin D3 complex [3] was > 100 µM each time. Moreover, the inhibition at 10 µM worked out at 15% at human FAK (FAKcd409) and 31% in series [1]. Besides, in series [2] (Table 1), the IC50 came out at 280 nM.
As for `Oc1ccc(-c2ccc3c(-c4nc5ccccc5[nH]4)n[nH]c3c2)c(Oc2ccccc2)c1` [24(g), 3-1H-Benzoimidazol-2-yl-6-(2-phenoxy-4-hydroxyphenyl)-1H-indazole], in the series on HCT-116, the IC50 was > 5 µM.
In the case of `CNC(=O)c1ccc2[nH]c(-c3n[nH]c4cc(-c5ccc(O)cc5OC)ccc34)nc2c1` [Reference Example 25(g), 3-(5-methylcarbamoyl-1H-benzoimidazol-2-yl)-6-(2-methoxy-4-hydroxyphenyl)-1H-indazole], the figures for the inhibition at 1 µM at human FGF-R1, on LCK tyrosine kinase (read-out: Lck* (% inhibition)) and at human CHK1 (FL-CHK1) were 82%, 76% and 21%, respectively. The compound further had an IC50 in the series on HCT-116 of 2 µM.
On to `COc1cc(O)ccc1-c1ccc2c(-c3nc4ccc(S(N)(=O)=O)cc4[nH]3)n[nH]c2c1` [Reference Example 25(i), 3-(5-Aminosulfonyl-1H-benzoimidaxol-2-yl)-6-(2-methoxy-4-hydroxy-phenyl)-1H-indazole], for which the concentration for half-maximal inhibition (IC50) with HCT-116 was > 5 µM.
In the case of `C(=C\c1n[nH]c2cc(-c3ccccc3)ccc12)/c1ccccc1` [Reference Example 27(a), 6-phenyl-3-E-styryl-1H-indazole], the inhibition at 10 µM in [4] stood at 37%. For the same compound, the inhibition at 1 µM in series [5] is 71%. In addition, the inhibition at 5 µM at CDK4/Cyclin D3 complex [6] is 28%.
As to `O=C(Nc1cccc(Cl)c1)c1ccccc1Sc1ccc2c(/C=C\c3ccccn3)n[nH]c2c1` [Reference Example 33(h), 6-[2-(3-chlorophenylcarbamoyl)phenysulfanyl]-3-Z-[2-(pyridin-2-yl)ethenyl]-1H-indazole], the “isomerization under assay conditions” value in [7] is reported as “found to isomerize to Reference Example 33(d) under assay conditions”.

Broadly, the inhibition is how much of the control response was suppressed. The term Ki denotes a measure of affinity in units of concentration, obtained from inhibition or displacement. By IC50 is commonly meant the concentration needed to halve the response being measured.
